Laboratory results reported in article PMC6651387, “Fine-Tuning the Activation Mode of an 1,3-Indandione-Based Ruthenium(II)-Cymene Half-Sandwich Complex by Variation of Its Leaving Group” (Molecules, 2019).
Several values for one entry are separate records, joined by “and”; a condition that tells them apart may be missing. Identical values can stand only once.

Columns and labels:
[1] = Lipophilicity by RP-UHPLC capacity factors (logkw, Φ0); format: physicochemical; conditions: for Intercept logkw: RP-UHPLC, MeOH/0.1% formic acid in water, 25 °C, logk extrapolated to 100% water; for Φ0: percentage of methanol in the eluent at which logk is zero, Φ0 = −logkw/S; for Slope S: slope of logk against % organic eluent (MeOH)
Excerpt: It stands to reason that the higher the lipophilicity, the higher the cell accumulation; as far as passive diffusion is concerned, the higher efficiency with which normal cell function is compromised. As a consequence, lipophilicity is an important factor in drug development, described by the partition coefficient logP, which is routinely determined by the distribution of a compound in 1-octanol/water. However, 1-octanol, a solvent said to closely mimic the solubilizing behavior of cell membranes, forms emulsions with water. Additionally, the shake-flask method, seemingly easy, requires long sample preparation, has a low sample throughput, and lacks reproducibility, as it hinges on exact temperature control and consistent equilibration time allotted for every analyte. The time-consuming nature of this method may also lead to decomposition of the analyte. A concentration-, flow rate-, and column length-independent method is the determination of the capacity factor (k) via HPLC. The capacity factor is a measure for the equilibrium concentration between a polar phase (eluent) and an apolar phase (C18 column coating) and higher resemblance to the partition coefficient in […]. […] The percentage of methanol in the eluent at which logk is equal to zero is Φ0 [27, 28, 29].
The capacity factors k were determined with the use of an RP-UHPLC. The necessary chromatograms were recorded with a Dionex UltiMate 3000 RS UHPLC system (Thermo Fisher Scientific, Bedford, MA, USA) controlled by the Dionex Chromeleon 7.2 software. […] The capacity factors were then calculated as logk = log[(tR − t0)/t0], where tR and t0 are the retention times of the analyte and the dead time marker, respectively, at the respective MeOH:0.1% FA in water ratio. Every retention time was determined in isocratic mode for the different eluent ratios to obtain capacity factors in the linear range (−0.5 ≤ logk ≤ 1.5) in triplicate. A plot of logk against the % of the organic eluent yielded logkw (intercept) and S (slope). Φ0, the factor most closely resembling logP, was then determined as follows: Φ0 = −logkw/S [28].

[2] = pH-dependent stability by UV-VIS spectroscopy; format: physicochemical; conditions: for precipitation at pH 7.4: 40 µM, PBS, 1% DMSO, loss of absorbance without change in spectrum
Excerpt: The stability under physiological conditions is a vital part of the process of developing a new drug. Additionally, N-donor leaving groups equip piano-stool complexes with an elegant pH-switch. Theoretically, they can be protonated at lower pH values, as found in the extracellular matrix of the tumor tissue, and are therefore cleaved off. The resulting aqua complex is highly reactive and able to interact with biological targets. To put this theory to the test, the stability of complexes 1a–g was investigated at different pH values, i.e., 5.5, 6.5, 7.4, and 8.5. Spectra were recorded over a period of 24 h, with 40 µM solutions (1% DMSO in water) in the range of 250–700 nm. The chosen pH values represented the physiologically relevant conditions; a pH value of 8.5 is the highest pH found in the human body (in the duodenum), a pH value of 7.4 is the average pH of human blood, and a pH value of 6.5 is the pH found in the extracellular matrix of solid tumors.
Stability measurements were performed on a Lambda 35 UV/VIS spectrometer (Perkin Elmer, Boston, MA, USA). Samples of complexes 1a–g: 40 µM in PBS (pH 7.4) and isotonic saline phosphate buffer with 0.9% sodium chloride (pH 8.5), diluted isotonic acetic acid (pH 5.5), and acetate buffer (pH 6.5) with 1% DMSO. UV-VIS spectra were recorded hourly for 24 h at 37 °C. Temperature control was maintained by a PTP-6 Peltier System (Perkin Elmer, Boston, MA, USA).

[3] = Solubility in minimal essential medium (MEM, 1% DMSO)
Method: Melting points were determined with a Büchi Melting Point M-560. The solubility was determined by dissolving the compound in DMSO and subsequent dilution to a final concentration of 1% DMSO/MEM solution (minimal essential medium) and 1% DMSO/MSP solution (medium with serum proteins). The highest concentrated dilution, where no precipitation of the compound occurred, was the determined solubility. The NMR spectra were recorded at 25 °C using a Bruker FT-NMR spectrometer Avance III^TM 500 MHz. ^1H-NMR spectra were measured at 500.10 MHz and ^13C-NMR spectra were recorded at 125.75 MHz in deuterated methanol (CD3OD). 2D-NMR spectra were measured using a gradient-enhanced mode. CHN elemental analyses were performed with a Eurovector EA3000 Elemental Analyzer in the microanalytical laboratory of the University of Vienna. Single crystals of complexes 1b–1f suitable for X-ray diffraction analysis were grown by precipitation from DCM/Et2O at 4 °C. The X-ray intensity data were measured on Bruker D8 Venture or X8 APEX II diffractometer equipped with multilayer monochromators, Mo K/α INCOATEC microfocus sealed tubes and Kryoflex cooling devices (Bruker, Karlsruhe, Germany). The structures were solved by direct methods and refined by full-matrix least-squares techniques. Non-hydrogen atoms were refined with anisotropic displacement parameters. Hydrogen atoms were inserted at calculated positions and refined with a riding model separately as rotating groups. The following software was used: Bruker SAINT software package using a narrow-frame algorithm for frame integration, SADABS [33] for absorption correction, OLEX2 [34] for structure solution, refinement, molecular diagrams and graphical user-interface, Shelxle for refinement and graphical user-interface, SHELXS-2013 [36] for structure solution, SHELXL-2013 [37] for refinement, and Platon for symmetry check. Electronspray ionization mass spectra were recorded on a Bruker AmaZon SL ion trap mass spectrometer (Bruker Daltonics GmbH, Hamburg, Germany).

Row | SMILES | Intercept logkw [1] | Φ0 [1] | Slope S [1] | hydrolysis in aqueous systems ([2]; aquation to the aqua complex) | solubility [3] | precipitation at pH 7.4 [2]
1 | Cc1ccc(C(C)C)cc1.O=C1C2=C(NCc3ccccc3)[O][Ru-]([Cl])[O+]=C2c2ccccc21 [1a] | 5.41 | 63.19 | −0.0855 | hydrolyzed quickly to the more reactive aqua complex |  | 
2 | Cc1ccc(C(C)C)cc1.Cn1ccnc1.F[P-](F)(F)(F)(F)F.O=C1C(=C(NCc2ccccc2)[O][Ru+])C(=O)c2ccccc21 [1b] | 5.49 | 61.84 | −0.0888 |  | 0.30 mg/mL and 0.40 mM | 
3 | Cc1ccc(C(C)C)cc1.F[P-](F)(F)(F)(F)F.O=C1C2=C(NCc3ccccc3)[O][Ru-]([n+]3ccc[nH]3)[O+]=C2c2ccccc21 [1c] | 5.36 | 63.72 | −0.0841 |  | 0.28 mg/mL and 0.39 mM | 
4 | Cc1ccc(C(C)C)cc1.F[P-](F)(F)(F)(F)F.O=C1C2=C(NCc3ccccc3)[O][Ru-]([n+]3c[nH]c4ccccc43)[O+]=C2c2ccccc21 [1d] | 5.55 | 65.87 | −0.0843 |  | 0.29 mg/mL and 0.37 mM | precipitated to some extent
5 | Cc1ccc(C(C)C)cc1.F[P-](F)(F)(F)(F)F.O=C1C2=C(NCc3ccccc3)[O][Ru-]([n+]3cc4ccccc4[nH]3)[O+]=C2c2ccccc21 [1e] | 5.94 | 68.88 | −0.0863 |  | 0.06 mg/mL and 0.08 mM | precipitated to some extent
6 | Cc1ccc(C(C)C)cc1.F[P-](F)(F)(F)(F)F.O=C1C2=C(NCc3ccccc3)[O][Ru-]([NH+]3CCOCC3)[O+]=C2c2ccccc21 [1g] | 5.14 | 59.73 | –0.0860 |  | 0.22 mg/mL and 0.29 mM | 
